Laboratory results reported in US9981071B2, “Drug delivery medical device” (Micell Technologies, Inc., priority 2008, dated 2018).
Each block holds one molecule with its values, some of them ahead of it.

Legend:
[1] = acid urine; cited from earlier work
[2] = tested on: bladder cancer recurrence; details: 40 mg/20 cc vs 20 mg/20 cc, dehydration, bladder emptying, alkalinization with sodium bicarbonate; cited from earlier work
[3] = parameters: dose or concentration left out as unconfirmed; details: estradiol release, as its 3-acetate ester; cited from earlier work
[4] = Bulk drug in arterial tissue surrounding the implanted stent; type: in vivo, Yucatan pig
Experimental: Another sample of the coated stent was prepared for in vivo evaluation in a porcine coronary artery model using the Yucatan pig. Subjects were initially given 650 mg acetylsalicylic acid and 300 mg Plavix. Maintenance doses of 81 mg acetylsalicylic acid and 75 mg Plavix were administered. The target ACT (activated clotting time) for the procedure was about 250 seconds. Stent oversizing in relation to the artery was about 10-20%. The preparation of the sirolimus-coated stent was the same as described in Example 1 and used for the in vitro deployment into tubing, except that the device was sterilized using ETO prior to implantation into the animal.
The bulk concentration of drug was measured in the arterial tissue surrounding the implanted stent at 1, 3, 7, 14, and 28 days after implant, and provided a quantitative measure of the high efficiency of transfer of drug into the therapeutic site using devices and methods of the invention. The amount of drug that was detected in the arterial tissue was as follows: 1 day after implant, ˜6 μg; 3 days after implant, ˜16 μg; 7 days after implant, ˜30 μg; 14 days after implant, ˜30 μg; 28 days after implant, ˜13 μg. Peak tissue concentration of sirolimus of ˜30 μg at 14 days after implant was representative of approximately ⅙ of the total drug that had been loaded on the stent. Note that some drug likely metabolized or diffused out of the arterial tissue into other areas of the body.

SMILES: CO[C@@]12[C@H](COC(N)=O)C3=C(C(=O)C(C)=C(N)C3=O)N1C[C@@H]1N[C@@H]12 [Mitomycin C]
stability in urine [1]: inactivated by acid urine | recurrence with optimized schedule [2]: nearly cut in half

SMILES: C[C@]12CC[C@@H]3c4ccc(O)cc4CC[C@H]3[C@@H]1CC[C@@H]2O [estradiol]
circulating plasma concentration maintained [3]: 300 pmol/L

amount of drug detected in the arterial tissue ([4]; 1 day after implant): ~6 µg | amount of drug detected in the arterial tissue ([4]; 3 days after implant): ~16 µg | amount of drug detected in the arterial tissue ([4]; 7 days after implant): ~30 µg | amount of drug detected in the arterial tissue ([4]; 14 days after implant): ~30 µg | peak tissue level as fraction of the total drug loaded on the stent ([4]; 14 days after implant): approximately ⅙ | amount of drug detected in the arterial tissue ([4]; 28 days after implant): ~13 µg
SMILES: CO[C@H]1C[C@@H]2CC[C@@H](C)[C@@](O)(O2)C(=O)C(=O)N2CCCC[C@H]2C(=O)O[C@H]([C@H](C)C[C@@H]2CC[C@@H](O)[C@H](OC)C2)CC(=O)[C@H](C)/C=C(\C)[C@@H](O)[C@@H](OC)C(=O)[C@H](C)C[C@H](C)/C=C/C=C/C=C/1C [sirolimus]
